Data published in ChEMBL document CHEMBL1201862, “PubChem BioAssay data set” (2004).
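The compound was tested at five concentrations on cells cultured in 96-well plates, with a 48-hour exposure period. GI50 marks 50% less growth.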 Active and inactive are the calls of the source. Cut-off read from the data, not from the text of the source: active = GI50 up to about 1.1 µM and inactive = higher.

What was measured:
Assay in all cases: NCI tumour cell line growth inhibition, 48 h
COLO 205 = system: COLO 205
NCI-H226 = system: NCI-H226
SNB-75 = system: SNB-75
HOP-92 = system: HOP-92
HCC 2998 = system: HCC 2998
SF-268 = system: SF-268
SK-MEL-5 = system: SK-MEL-5
PC-3 = system: PC-3
SN12C = system: SN12C
OVCAR-4 = system: OVCAR-4
786-0 = system: 786-0
SR = system: SR
MCF7 = system: MCF7
NCI/ADR-RES = system: NCI/ADR-RES
OVCAR-5 = system: OVCAR-5
HOP-62 = system: HOP-62
Hs-578T = system: Hs-578T
NCI-H522 = system: NCI-H522
CAKI-1 = system: CAKI-1
OVCAR-3 = system: OVCAR-3
Malme-3M = system: Malme-3M
MDA-N = system: MDA-N
BT-549 = system: BT-549
ACHN = system: ACHN
HT-29 = system: HT-29
RPMI-8226 = system: RPMI-8226
SNB-19 = system: SNB-19
SF-539 = system: SF-539
SF-295 = system: SF-295
EKVX = system: EKVX
MDA-MB-231 = system: MDA-MB-231
UO-31 = system: UO-31
MOLT-4 = system: MOLT-4
IGROV-1 = system: IGROV-1
HCT-15 = system: HCT-15
T47D = system: T47D
KM12 = system: KM12
M14 = system: M14
SK-MEL-28 = system: SK-MEL-28
U-251 = system: U-251
HCT-116 = system: HCT-116
NCI-H23 = system: NCI-H23
TK-10 = system: TK-10
DU-145 = system: DU-145
UACC-257 = system: UACC-257
SK-OV-3 = system: SK-OV-3
A549 = system: A549
UACC-62 = system: UACC-62
OVCAR-8 = system: OVCAR-8
MDA-MB-435 = system: MDA-MB-435
K562 = system: K562
NCI-H460 = system: NCI-H460
RXF 393 = system: RXF 393
LOX IMVI = system: LOX IMVI
SW-620 = system: SW-620
A498 = system: A498
HL-60 = system: HL-60
CCRF-CEM = system: CCRF-CEM

CC(=O)OCC1OC(n2c(Br)nc3c2c(=O)n(C)c(=O)n3C)C(OC(C)=O)C1OC(C)=O (centres undefined)
GI50 (COLO 205): 75 µM (inactive) | GI50 (NCI-H226): 71.6 µM (inactive) | GI50 (SNB-75): 85.1 µM (inactive) | GI50 (HOP-92): 83 µM (inactive) | GI50 (HCC 2998): > 100 µM (inactive) | GI50 (SF-268): 62.7 µM (inactive) | GI50 (SK-MEL-5): 31.9 µM (inactive) | GI50 (PC-3): 45.8 µM (inactive) | GI50 (SN12C): 79.4 µM (inactive) | GI50 (OVCAR-4): 27.5 µM (inactive) | GI50 (786-0): 89.9 µM (inactive) | GI50 (SR): 19.9 µM (inactive) | GI50 (MCF7): 69.8 µM (inactive) | GI50 (NCI/ADR-RES): > 100 µM (inactive) | GI50 (OVCAR-5): > 100 µM (inactive) | GI50 (HOP-62): > 100 µM (inactive) | GI50 (Hs-578T): 45.8 µM (inactive) | GI50 (NCI-H522): 45.9 µM (inactive) | GI50 (CAKI-1): > 100 µM (inactive) | GI50 (OVCAR-3): 48.1 µM (inactive) | GI50 (Malme-3M): > 100 µM (inactive) | GI50 (MDA-N): 33.6 µM (inactive) | GI50 (BT-549): 28.8 µM (inactive) | GI50 (ACHN): 48.3 µM (inactive) | GI50 (HT-29): 43.8 µM (inactive) | GI50 (RPMI-8226): 27.9 µM (inactive) | GI50 (SNB-19): 74.8 µM (inactive) | GI50 (SF-539): 59.2 µM (inactive) | GI50 (SF-295): > 100 µM (inactive) | GI50 (EKVX): 64.7 µM (inactive) | GI50 (MDA-MB-231): > 100 µM (inactive) | GI50 (UO-31): > 100 µM (inactive) | GI50 (MOLT-4): > 100 µM (inactive) | GI50 (IGROV-1): > 100 µM (inactive) | GI50 (HCT-15): > 100 µM | GI50 (T47D): > 100 µM (inactive) | GI50 (KM12): 64.9 µM (inactive) | GI50 (M14): 77.1 µM (inactive) | GI50 (SK-MEL-28): > 100 µM (inactive) | GI50 (U-251): 39.8 µM (inactive) | GI50 (HCT-116): 35.1 µM (inactive) | GI50 (NCI-H23): 77.3 µM (inactive) | GI50 (TK-10): > 100 µM (inactive) | GI50 (DU-145): 38.2 µM (inactive) | GI50 (UACC-257): 50.2 µM (inactive) | GI50 (SK-OV-3): > 100 µM (inactive) | GI50 (A549): > 100 µM (inactive) | GI50 (UACC-62): 67.6 µM (inactive) | GI50 (OVCAR-8): 42 µM (inactive) | GI50 (MDA-MB-435): 29.4 µM (inactive) | GI50 (K562): 53.3 µM (inactive) | GI50 (NCI-H460): 84.3 µM (inactive) | GI50 (RXF 393): > 100 µM (inactive) | GI50 (LOX IMVI): 43.2 µM (inactive) | GI50 (SW-620): 76.9 µM (inactive) | GI50 (A498): 43 µM (inactive) | GI50 (HL-60): 21.3 µM (inactive)

C(=N\NC1=NCCN1)/c1cccc2cc3ccncc3nc12
GI50 (COLO 205): 1.21 µM (inactive) | GI50 (NCI-H226): 8.28 µM (inactive) | GI50 (SNB-75): 0.259 µM (active) | GI50 (HOP-92): 1 µM (active) | GI50 (HCC 2998): 5.71 µM (inactive) | GI50 (SF-268): 3.85 µM (inactive) | GI50 (SK-MEL-5): 9.51 µM (inactive) | GI50 (PC-3): 3.67 µM (inactive) | GI50 (SN12C): 3.15 µM (inactive) | GI50 (OVCAR-4): 3.33 µM (inactive) | GI50 (786-0): 1.95 µM (inactive) | GI50 (SR): 1.08 µM (active) | GI50 (MCF7): 3.16 µM (inactive) | GI50 (NCI/ADR-RES): 3.24 µM (inactive) | GI50 (HOP-62): 6.22 µM (inactive) | GI50 (Hs-578T): 3.94 µM (inactive) | GI50 (NCI-H522): 3.33 µM (inactive) | GI50 (CAKI-1): 2.84 µM (inactive) | GI50 (OVCAR-3): 4.81 µM (inactive) | GI50 (Malme-3M): 10.6 µM (inactive) | GI50 (MDA-N): 2.89 µM (inactive) | GI50 (BT-549): 16 µM (inactive) | GI50 (ACHN): 2.84 µM (inactive) | GI50 (HT-29): 1.71 µM (inactive) | GI50 (RPMI-8226): 1.93 µM (inactive) | GI50 (SNB-19): 9.53 µM (inactive) | GI50 (SF-539): 5.85 µM (inactive) | GI50 (SF-295): 3.04 µM (inactive) | GI50 (EKVX): 2.86 µM (inactive) | GI50 (MDA-MB-231): 2.15 µM (inactive) | GI50 (UO-31): 3.21 µM (inactive) | GI50 (MOLT-4): 1.69 µM (inactive) | GI50 (IGROV-1): 3.24 µM (inactive) | GI50 (CCRF-CEM): 1.1 µM (active) | GI50 (HCT-15): 3.4 µM | GI50 (T47D): 2.14 µM (inactive) | GI50 (KM12): 5.73 µM (inactive) | GI50 (M14): 12.6 µM (inactive) | GI50 (SK-MEL-28): 10.1 µM (inactive) | GI50 (U-251): 1.94 µM (inactive) | GI50 (HCT-116): 1.57 µM (inactive) | GI50 (NCI-H23): 11.5 µM (inactive) | GI50 (TK-10): 10.4 µM (inactive) | GI50 (DU-145): 7.23 µM (inactive) | GI50 (UACC-257): 9.89 µM (inactive) | GI50 (SK-OV-3): 11.3 µM (inactive) | GI50 (A549): 6.76 µM (inactive) | GI50 (UACC-62): 3.43 µM (inactive) | GI50 (OVCAR-8): 1.93 µM (inactive) | GI50 (MDA-MB-435): 2.49 µM (inactive) | GI50 (K562): 1.36 µM (inactive) | GI50 (NCI-H460): 4.36 µM (inactive) | GI50 (RXF 393): 2.77 µM (inactive) | GI50 (LOX IMVI): 1.73 µM (inactive) | GI50 (SW-620): 1.94 µM (inactive) | GI50 (A498): 11.6 µM (inactive) | GI50 (HL-60): 1.04 µM (active)
